Experimental data from patent US11147272B2, “Pyridone compounds and agricultural and horticultural fungicides comprising the same as active ingredients” (MITSUI CHEMICALS AGRO, INC., priority 2017, dated 2021).

Experiments:
[1] = test system: Magnaporthe grisea; assay: whole plant or invertebrate; assay type: in vivo; details: Blast on rice; class of control value
[2] = test system: Alternaia brassicicola; assay: Test Example C: Alternaria sooty spot on cabbage; assay type: in vivo; details: Alternaria sooty spot on cabbage; class of control value
Text: Seeds of a test plant (cabbage variety: Shikidori) were planted and cultivated until the cotyledons extended.
<Control Value> Control value=100{1−(n/3)}

[3] = test system: Puccinia recondita; assay: Test Example E: Brown rust on wheat; assay type: in vivo; details: Brown rust on wheat; class of control value
[4] = test system: Phytophthora infestans; assay: whole plant or invertebrate; assay type: in vivo; details: Late blight on tomato; class of control value
[5] = test system: Botrytis cinerea; assay: Test Example B: Gray mold on tomato; details: Gray mold on tomato; class of control value
[6] = test system: Plasmopara viticola; assay: Test Example G: Downy mildew on vine; details: Downy mildew on vine (Neomuscat); 250 ppm spray, 2.5 ml/pot; assessed 7 to 10 days after inoculation
[7] = test system: Colletotrichum orbiculare; assay: Test Example H: Anthracnose on cucumber; details: Anthracnose on cucumber (Sagami Hanjiro); 250 ppm spray, 2.5 ml/pot; assessed 6 to 10 days after inoculation
[8] = test system: Blumeria graminis f. sp. hordei; assay: Test Example D: Powdery mildew on barley; details: Powdery mildew on barley; class of control value

COc1cc(F)c(-c2c(C(C)(C)C)cc(Cl)c(=O)n2C)c(F)c1 [compound 79]
H (more than 50% control value): Test A control value class [1] | Test C control value class [2] | Test E control value class [3] | Test B control value class [5] | Test H control value class [7] | Test D control value class [8]
L (50% or less control value): Test F control value class [4] | Test G control value class [6]

CCn1c(-c2c(F)cccc2F)c(CN(C)C(C)C)cc(Cl)c1=O [compound 80]
L (50% or less control value): Test A control value class [1] | Test C control value class [2] | Test E control value class [3] | Test G control value class [6] | Test D control value class [8]
H (more than 50% control value): Test F control value class [4] | Test B control value class [5] | Test H control value class [7]

CCn1c(-c2c(F)cc(F)cc2F)c(C(OC)N(C)C(C)C)cc(Cl)c1=O (centres unmarked) [compound 81]
H (more than 50% control value): Test A control value class [1] | Test B control value class [5]
L (50% or less control value): Test C control value class [2] | Test E control value class [3] | Test F control value class [4] | Test G control value class [6] | Test H control value class [7] | Test D control value class [8]

COc1cc(F)c(-c2c(C(C)(C)C)cc(Br)c(=O)n2C)c(F)c1 [compound 82]
L (50% or less control value): Test A control value class [1] | Test F control value class [4] | Test D control value class [8]
H (more than 50% control value): Test C control value class [2] | Test E control value class [3] | Test B control value class [5] | Test G control value class [6] | Test H control value class [7]

CCn1c(-c2c(F)cc(OCCOC)cc2F)c(C(C)(C)C)cc(Cl)c1=O [compound 83]
L (50% or less control value): Test F control value class [4] | Test D control value class [8]
H (more than 50% control value): Test A control value class [1] | Test C control value class [2] | Test E control value class [3] | Test B control value class [5] | Test G control value class [6] | Test H control value class [7]

COCCOc1cc(F)c(-c2c(C(C)(C)C)cc(Cl)c(=O)n2C)c(F)c1 [compound 84]
H (more than 50% control value): Test C control value class [2] | Test H control value class [7]
L (50% or less control value): Test A control value class [1] | Test E control value class [3] | Test F control value class [4] | Test B control value class [5] | Test G control value class [6] | Test D control value class [8]

COc1cc(F)c(-c2c(C(C)(C)C)cc(Cl)c(=O)n2C)c(F)c1 [compound 85]
H (more than 50% control value): Test A control value class [1] | Test C control value class [2] | Test E control value class [3] | Test B control value class [5] | Test H control value class [7]
L (50% or less control value): Test F control value class [4] | Test G control value class [6] | Test D control value class [8]

CCn1c(-c2c(F)cc(F)cc2F)c(CN(C)C(C)C)cc(Cl)c1=O [compound 86]
H (more than 50% control value): Test C control value class [2]
L (50% or less control value): Test A control value class [1] | Test E control value class [3] | Test F control value class [4] | Test B control value class [5] | Test G control value class [6] | Test H control value class [7] | Test D control value class [8]

CCn1c(-c2c(F)cc(OC)cc2F)c(C(CC(C)C)OC)cc(Cl)c1=O (centres unmarked) [compound 87]
H (more than 50% control value): Test C control value class [2] | Test E control value class [3] | Test B control value class [5] | Test H control value class [7] | Test D control value class [8]
L (50% or less control value): Test A control value class [1] | Test F control value class [4] | Test G control value class [6]

CCn1c(-c2c(F)cc(OC)cc2F)c(CN(C)C(C)C)cc(Cl)c1=O [compound 88]
L (50% or less control value): Test A control value class [1] | Test F control value class [4] | Test G control value class [6] | Test H control value class [7]
H (more than 50% control value): Test C control value class [2] | Test E control value class [3] | Test B control value class [5] | Test D control value class [8]

CCn1c(-c2c(F)cc(F)cc2F)c(C(O)CC(C)C)cc(Cl)c1=O (centres unmarked) [compound 90]
L (50% or less control value): Test F control value class [4]
H (more than 50% control value): Test A control value class [1] | Test C control value class [2] | Test E control value class [3] | Test B control value class [5] | Test G control value class [6] | Test H control value class [7] | Test D control value class [8]

CCn1c(-c2c(F)cc(F)cc2F)c(CN(C)C)cc(Cl)c1=O [compound 91]
L (50% or less control value): Test A control value class [1] | Test C control value class [2] | Test F control value class [4] | Test B control value class [5] | Test G control value class [6] | Test D control value class [8]
H (more than 50% control value): Test E control value class [3] | Test H control value class [7]

CCn1c(-c2c(F)cc(OC)cc2F)c(CN(C)C)cc(Cl)c1=O [compound 92]
L (50% or less control value): Test F control value class [4] | Test B control value class [5] | Test G control value class [6] | Test D control value class [8]
H (more than 50% control value): Test A control value class [1] | Test C control value class [2] | Test E control value class [3] | Test H control value class [7]

CCn1c(-c2c(F)cc(OC)cc2F)c(CN(C)OC)cc(Cl)c1=O [compound 94]
H (more than 50% control value): Test A control value class [1] | Test C control value class [2] | Test E control value class [3] | Test F control value class [4] | Test B control value class [5] | Test G control value class [6] | Test H control value class [7] | Test D control value class [8]

CCn1c(-c2c(F)cccc2OC)c(CC(C)C)ccc1=O [compound 95]
L (50% or less control value): Test A control value class [1] | Test C control value class [2] | Test G control value class [6] | Test H control value class [7]
H (more than 50% control value): Test E control value class [3] | Test F control value class [4] | Test B control value class [5] | Test D control value class [8]

CCn1c(-c2c(F)cccc2OC)c(CC(C)C)cc(Br)c1=O [compound 96]
H (more than 50% control value): Test C control value class [2] | Test E control value class [3] | Test B control value class [5] | Test H control value class [7] | Test D control value class [8]
L (50% or less control value): Test A control value class [1] | Test F control value class [4] | Test G control value class [6]
